Test results from patent publication US20200179415A1, “HIGHLY ACTIVE DRUG COMBINATION FOR TREATMENT OF HEPATITIS C VIRUS” (Atea Pharmaceuticals, Inc., priority 2018, published 2020).
Structures can show the parent of a compound that is named as a salt.

Columns and labels:
[1] = tested on: GT1b_3a-NS5B chimeric HCV replicon; experiment: microbe, parasite or virus in culture; type: cell-based; settings: Hepatitis C virus, Huh-7, 72 h, read-out: Individual EC50
Procedure: (§1) Huh7 cells were maintained in DMEM supplemented with 10% FBS, 1% NEAA, 1% L-Glutamine and 1% Penicillin-Streptomycin. The stable HCV GT1a and 1b replicon cells were generated by transfection of Huh7 cells with in vitro transcribed HCV replicon RNA transcripts from replicon DNA constructs and were selected with 250 μg/ml of G418. The GT1b/3a NS5B chimeric replicons were constructed with the GT1b replicon as a backbone. GT1b/3a NS5B replicon RNAs were in vitro transcribed using the replicon plasmid DNAs and used to transiently transfect Huh7 cells by electroporation.
(§2) The final concentration of DMSO in the cell culture medium was 0.5%. Compounds were individually tested for their inhibitory activity in stably-transfected GT1a and GT1b replicons and in transiently-transfected GT1b/3a NS5B chimeric replicons in duplicate at 9 concentrations with a series of 4-fold dilutions starting at 10,000 nM. Replicon cells were seeded (8,000 cells/well for GT1a and 1b; 10,000 cells/well for GT1b/3a NS5B) in 96-well plates containing serially diluted compounds and cultured at 37° C. and 5% CO2 for 3 days. CellTiter-Fluor was used to detect the fluorescence signal and the raw data (RFU) was used for calculating cell viability using the equation below: […]
(§3) where CPD is a signal from a well containing a test compound, ZPE is the average of signals from DMSO control wells and HPE is the average of signals from medium control wells.
(§4) The data were analyzed using CompuSyn software (ComboSyn, Inc., Paramus, N.J.) to obtain the concentrations of the individual compounds required to achieve 50% cytotoxicity (CC50) and 50% (EC50) and 90% (EC90) antiviral efficacy. […]
(§5) In Example 6, Huh7 cells were transiently transfected with replicon RNA by electroporation and seeded at a density of 10,000 cells/well in 96-well plates. HCV GT1a and GT1b replicons stable cells were seeded at a density of 8,000 cells/well in 96-well plates. […]

HCV GT1a replicon = experiment: microbe, parasite or virus in culture; type: cell-based; settings: Hepatitis C virus, Huh-7, 72 h, stable replicon in Huh7 cells, 3 days, read-out: Individual EC50
Procedure: as §1, §2, §3, §4, §5

HCV GT1b replicon = experiment: microbe, parasite or virus in culture; type: cell-based; settings: Hepatitis C virus, Huh-7, 72 h, stable replicon in Huh7 cells, 3 days, read-out: Individual EC50
Procedure: as §1, §2, §3, §4, §5

HCV GT1 = settings: non-cirrhotic patients, 600 mg QD, seven days; cited from earlier work
HCV GT3 = settings: non-cirrhotic patients, 600 mg QD, seven days; cited from earlier work
HCV GT1 or HCV GT3 = settings: CPA cirrhosis, QD for seven days; cited from earlier work
[2] = Stability of Compound 2-A in stability chambers; type: physicochemical
Procedure: The stability of Compound 2-A was measured under three different conditions: 1) open container; 2) PE/ALU bag where the PE bag is closed with clips and the ALU bag is sealed by thermos-sealing; and 3) PE/ALU bag with desiccant where the PE bag is closed with plastic clip, the ALU bag is sealed by the thermos-sealing, and 10 g of silica gel is placed between the bags. The open container conditions were conducted with two different batches of Compound 2-A. The results of the stability studies are shown in Table 5A, Table 5B, Table 6, and Table 7.

[3] = Hygroscopicity in climatic cabinet; type: physicochemical
Procedure: Compound 2-A was characterized by ^1HNMR, ^13CNMR, FI-IR, and mass spectrum in addition to XRPD (FIG. 1A) and differential scanning calorimetry (DSC) (FIG. 1B). The hygroscopicity was measured by placing a sample in a climatic cabinet set at 25±1° C./80±2% RH for 24 hours. The water content was increased from 3.3% to 9.4%.

[4] = 25° C./60% RH and 40° C./75% RH
[5] = Batch No. 1, open container, 25° C./60% RH, 7 days
[6] = Batch No. 1, open container, 25° C./60% RH, 14 days
[7] = Batch No. 1, open container, 25° C./60% RH, 28 days
[8] = Batch No. 1, open container, 30° C./65% RH, 7 days
[9] = Batch No. 1, open container, 30° C./65% RH, 14 days
[10] = Batch No. 1, open container, 30° C./65% RH, 28 days
[11] = Batch No. 1, open container, 40° C./75% RH, 7 days
[12] = Batch No. 1, open container, 40° C./75% RH, 14 days
[13] = Batch No. 1, open container, 40° C./75% RH, 28 days
[14] = Batch No. 1, open container, Initial
[15] = Batch No. 2, PE/ALU bag, 25° C./60% RH, 7 days
[16] = Batch No. 2, PE/ALU bag, 25° C./60% RH, 16 days
[17] = Batch No. 2, PE/ALU bag, 40° C./75% RH, 7 days
[18] = Batch No. 2, PE/ALU bag, 40° C./75% RH, 16 days
[19] = Batch No. 2, PE/ALU bag, Initial
[20] = Batch No. 2, PE/ALU with desiccant, 25° C./60% RH, 7 days
[21] = Batch No. 2, PE/ALU with desiccant, 25° C./60% RH, 16 days
[22] = Batch No. 2, PE/ALU with desiccant, 40° C./75% RH, 7 days
[23] = Batch No. 2, PE/ALU with desiccant, 40° C./75% RH, 16 days
[24] = Batch No. 2, PE/ALU with desiccant, Initial
[25] = Batch No. 2, open container, 25° C./60% RH, 7 days
[26] = Batch No. 2, open container, 25° C./60% RH, 16 days
[27] = Batch No. 2, open container, 30° C./65% RH, 7 days
[28] = Batch No. 2, open container, 30° C./65% RH, 16 days
[29] = Batch No. 2, open container, 40° C./75% RH, 7 days
[30] = Batch No. 2, open container, 40° C./75% RH, 16 days
[31] = Batch No. 2, open container, Initial

CNc1nc(N)nc2c1ncn2[C@@H]1O[C@H](CO[P@@](=O)(N[C@@H](C)C(=O)OC(C)C)Oc2ccccc2)[C@@H](O)[C@@]1(C)F [Compound 1-A, hemi-sulfate salt of isopropyl((S)-(((2R,3R,4R,5R)-5-(2-amino-6-(methylamino)-9H-purin-9-yl)-4-fluoro-3-hydroxy-4-methyltetrahydrofuran-2-yl)methoxy)(phenoxy)phosphoryl)-L-alaninate]
EC50 [1]: 1.68 nM
EC50 (HCV GT1a replicon): 2.83 nM
EC50 (HCV GT1b replicon): 2.69 nM
mean maximum HCV RNA reduction (HCV GT1): 4.4 log10 IU/mL
mean maximum HCV RNA reduction (HCV GT3): 4.6 log10 IU/mL
mean maximum HCV RNA reduction (HCV GT1 or HCV GT3): 4.4 log10 IU/mL

COC(=O)N[C@H](C(=O)N1CCC[C@H]1c1nc(-c2ccc(-c3ccc(-c4c[nH]c([C@@H]5CCCN5C(=O)[C@@H](NC(=O)OC)C(C)C)n4)c4c3OCO4)cc2)c[nH]1)C(C)C [Compound 2, methyl N-[(2S)-1-[(2S)-2-[5-[4-[7-[2-[(2S)-1-[(2 S)-2-(methoxycarbonylamino)-3-methylbutanoyl]pyrrolidin-2-yl]-1H-imidazol-5-yl]-1,3-benzodioxol-4-yl]phenyl]-1H-imidazol-2-yl]pyrrolidin-1-yl]-3-methyl-1-oxobutan-2-yl]carbamate]
EC50 [1]: 0.0029 nM
EC50 (HCV GT1a replicon): 0.03 nM
EC50 (HCV GT1b replicon): 0.014 nM

COC(=O)N[C@H](C(=O)N1CCC[C@H]1c1nc(-c2ccc(-c3ccc(-c4c[nH]c([C@@H]5CCCN5C(=O)[C@@H](NC(=O)OC)C(C)C)n4)c4c3OCO4)cc2)c[nH]1)C(C)C [Compound 2-A]
purity change [2, 4]: not changed
water content change [2, 4]: slowly increased
Appearance [2, 5]: Pale-yellow solid
Purity (HPLC) [2, 5]: 98.45%
Water (KF) [2, 5]: 6.14%
XRPD [2, 5]: Consistent
Appearance [2, 6]: Pale-yellow solid
Purity (HPLC) [2, 6]: 98.61%
Water (KF) [2, 6]: 6.28%
Appearance [2, 7]: Pale-yellow solid
Purity (HPLC) [2, 7]: 98.58%
Water (KF) [2, 7]: 5.95%
Appearance [2, 8]: Pale-yellow solid
Purity (HPLC) [2, 8]: 98.40%
Water (KF) [2, 8]: 6.73%
XRPD [2, 8]: Consistent
Appearance [2, 9]: Pale-yellow solid
Purity (HPLC) [2, 9]: 98.47%
Water (KF) [2, 9]: 6.80%
Appearance [2, 10]: Pale-yellow solid
Purity (HPLC) [2, 10]: 98.59%
Water (KF) [2, 10]: 6.49%
Appearance [2, 11]: Pale-yellow solid
Purity (HPLC) [2, 11]: 98.45%
Water (KF) [2, 11]: 7.13%
XRPD [2, 11]: Consistent
Appearance [2, 12]: Pale-yellow solid
Purity (HPLC) [2, 12]: 98.51%
Water (KF) [2, 12]: 7.67%
Appearance [2, 13]: Pale-yellow solid
Purity (HPLC) [2, 13]: 98.53%
Water (KF) [2, 13]: 6.96%
Appearance [2, 14]: Pale-yellow solid
Purity (HPLC) [2, 14]: 98.39%
Water (KF) [2, 14]: 3.11%
XRPD [2, 14]: Crystalline
Appearance [2, 15]: White powder
Purity (HPLC) [2, 15]: 99.36%
Water (KF) [2, 15]: 5.18%
Appearance [2, 16]: White powder
Purity (HPLC) [2, 16]: 99.41%
Water (KF) [2, 16]: 5.56%
Appearance [2, 17]: White powder
Purity (HPLC) [2, 17]: 99.37%
Water (KF) [2, 17]: 5.42%
Appearance [2, 18]: White powder
Purity (HPLC) [2, 18]: 99.42%
Water (KF) [2, 18]: 5.91%
Appearance [2, 19]: White powder
Purity (HPLC) [2, 19]: 99.39%
Water (KF) [2, 19]: 4.48%
Appearance [2, 20]: White powder
Purity (HPLC) [2, 20]: 99.38%
Water (KF) [2, 20]: 5.46%
Appearance [2, 21]: White powder
Purity (HPLC) [2, 21]: 99.41%
Water (KF) [2, 21]: 5.83%
Appearance [2, 22]: White powder
Purity (HPLC) [2, 22]: 99.37%
Water (KF) [2, 22]: 5.51%
Appearance [2, 23]: White powder
Purity (HPLC) [2, 23]: 99.42%
Water (KF) [2, 23]: 6.90%
Appearance [2, 24]: White powder
Purity (HPLC) [2, 24]: 99.39%
Water (KF) [2, 24]: 4.48%
Appearance [2, 25]: White powder
Purity (HPLC) [2, 25]: 99.37%
Water (KF) [2, 25]: 6.01%
Appearance [2, 26]: White powder
Purity (HPLC) [2, 26]: 99.41%
Water (KF) [2, 26]: 7.69%
Appearance [2, 27]: White powder
Purity (HPLC) [2, 27]: 99.38%
Water (KF) [2, 27]: 7.50%
Appearance [2, 28]: White powder
Purity (HPLC) [2, 28]: 99.41%
Water (KF) [2, 28]: 6.98%
Appearance [2, 29]: White powder
Purity (HPLC) [2, 29]: 99.38%
Water (KF) [2, 29]: 7.96%
Appearance [2, 30]: White powder
Purity (HPLC) [2, 30]: 99.42%
Water (KF) [2, 30]: 7.03%
Appearance [2, 31]: White powder
Purity (HPLC) [2, 31]: 99.39%
Water (KF) [2, 31]: 4.48%
water content ([3]; after 24 hours at 25±1° C./80±2% RH): 9.4%
water content ([3]; before storage): 3.3%
